Test results: patent US5488035A (priority 1991, dated 1996)
Where two headings read alike, the source gives them in different places.

Tests used:
Type in all cases: cell-based
[1] = tested on: AFL 001 (Aspergillus flavus); experiment: Minimum inhibitory concentration; conditions: for MIC AFL 001: MIC Comparisons
Procedure: Decreasing tested concentrations of tachyplesin were against the preceding four organisms plus Fusarium moniliforme and Sclerotinia sclerotiorum to determine the minimum inhibitory concentration, and this was compared with other antimicrobial compounds. Results were as follows:
The MICs of tachyplesin, defensin and hordothionin (μg/ml) were measured against FGR 008 and AFL 001 across a range of buffer pHs and ionic strengths to determine their suitability as plant antimicrobials under varying conditions.

[2] = tested on: FGR 005 (Fusarium graminearum); conditions: MIC Comparisons
[3] = tested on: FMO 001 (Fusarium moniliforme); experiment: Minimum inhibitory concentration; conditions: MIC Comparisons
Source text: (§1) Decreasing tested concentrations of tachyplesin were against the preceding four organisms plus Fusarium moniliforme and Sclerotinia sclerotiorum to determine the minimum inhibitory concentration, and this was compared with other antimicrobial compounds.

[4] = tested on: SSC 002 (Sclerotinia sclerotiorum); experiment: Minimum inhibitory concentration; conditions: MIC Comparisons
Source text: as §1

[5] = tested on: FGR 008 (Fusarium graminearum); conditions: buffer pHs of from 5.0 to 8.0
[6] = tested on: Fusarium graminearum, isolate 8 (FGR 008); conditions: Example 2, scale 0-4
[7] = tested on: Fusarium graminearum, isolate 5 (FGR 005); conditions: for Score (antifungal activity), Fusarium graminearum, isolate 5: Example 1, 100 μg/ml; for Score FGR 005: Example 2, scale 0-4
[8] = tested on: Sclerotinia trifoliorum, isolate 1; experiment: Antifungal activity score; conditions: Example 1, 100 μg/ml
Procedure: (§2) The tachyplesin was used at a concentration of 100 μg/ml as determined by absorption spectrum was screened against four common plant pathogens in both crude and oxidized forms. Antifungal activity was scored on a scale of 0 to 4, with 0 being no inhibition observed relative to a water control, and 4 being complete inhibition. Two reps were done for each treatment.

[9] = tested on: Aspergillus flavus, isolate 1 (AFL 001); experiment: Antifungal activity score, decreasing concentrations; conditions: Example 2, scale 0-4
Procedure: as §2, with “treatment. Results were as follows:” for “treatment.”
as §1

[10] = tested on: FMO 001 (Fusarium moniliforme); experiment: as above; conditions: Example 2, scale 0-4
Procedure: as §2, with “treatment. Results were as follows:” for “treatment.”
as §1

[11] = tested on: SSC 002 (Sclerotinia sclerotiorum); experiment: as above; conditions: Example 2, scale 0-4
Procedure: as §2, with “treatment. Results were as follows:” for “treatment.”
as §1

[12] = tested on: SSC ascospores (Sclerotinia sclerotiorum); experiment: as above; conditions: Example 2, scale 0-4
Procedure: as §2, with “treatment. Results were as follows:” for “treatment.”
as §1

hordothionin
MIC AFL 001 ([1]; value before parentheses): 15 µg/mL
MIC AFL 001 ([1]; value in parentheses): 3 µM
Dependence of MIC on buffer pH, AFL 001 ([1]; buffer pHs of from 5.0 to 8.0): None of the antimicrobials showed a discernible trend or optimum
MIC FGR 005 ([2]; value before parentheses): 5 µg/mL
MIC FGR 005 ([2]; value in parentheses): 1 µM
MIC FMO 001 ([3]; value before parentheses): 45 µg/mL
MIC FMO 001 ([3]; value in parentheses): 9 µM
MIC SSC 002 ([4]; value before parentheses): 30 µg/mL
MIC SSC 002 ([4]; value in parentheses): 6 µM
Dependence of MIC on buffer pH, FGR 008 [5]: None of the antimicrobials showed a discernible trend or optimum

tachyplesin [tachyplesin crude]
Score FGR 008 ([6]; 1.56 μg/ml (0.7 μM)): 0.0
Score FGR 008 ([6]; 3.13 μg/ml (1.4 μM)): 0.0
Score FGR 008 ([6]; 6.25 μg/ml (2.8 μM)): 0.0
Score FGR 008 ([6]; 12.5 μg/ml (5.6 μM)): 3.75
Score FGR 008 ([6]; 25 μg/ml (11.1 μM)): 4.0
Score FGR 008 ([6]; 50 μg/ml (22.2 μM)): 4.0
Score FGR 008 ([6]; 100 μg/ml (44.4 μM)): 4.0
Score (antifungal activity), Fusarium graminearum, isolate 5 [7]: 4.0
Score FGR 005 ([7]; 1.56 μg/ml (0.7 μM)): 0.0
Score FGR 005 ([7]; 3.13 μg/ml (1.4 μM)): 0.0
Score FGR 005 ([7]; 6.25 μg/ml (2.8 μM)): 1.0
Score FGR 005 ([7]; 12.5 μg/ml (5.6 μM)): 3.0
Score FGR 005 ([7]; 25 μg/ml (11.1 μM)): 4.0
Score FGR 005 ([7]; 50 μg/ml (22.2 μM)): 4.0
Score FGR 005 ([7]; 100 μg/ml (44.4 μM)): 4.0
Score (antifungal activity), Sclerotinia trifoliorum, isolate 1 [8]: 4.0
Score AFL 001 ([9]; 1.56 μg/ml (0.7 μM)): 0.0
Score AFL 001 ([9]; 3.13 μg/ml (1.4 μM)): 0.0
Score AFL 001 ([9]; 6.25 μg/ml (2.8 μM)): 0.0
Score AFL 001 ([9]; 12.5 μg/ml (5.6 μM)): 1.0
Score AFL 001 ([9]; 25 μg/ml (11.1 μM)): 1.5
Score AFL 001 ([9]; 50 μg/ml (22.2 μM)): 3.25
Score AFL 001 ([9]; 100 μg/ml (44.4 μM)): 3.5
Score FMO 001 ([10]; 1.56 μg/ml (0.7 μM)): 0.0
Score FMO 001 ([10]; 3.13 μg/ml (1.4 μM)): 0.0
Score FMO 001 ([10]; 6.25 μg/ml (2.8 μM)): 0.5
Score FMO 001 ([10]; 12.5 μg/ml (5.6 μM)): 1.25
Score FMO 001 ([10]; 25 μg/ml (11.1 μM)): 3.75
Score FMO 001 ([10]; 50 μg/ml (22.2 μM)): 4.0
Score FMO 001 ([10]; 100 μg/ml (44.4 μM)): 4.0
Score SSC 002 ([11]; 1.56 μg/ml (0.7 μM)): 0.0
Score SSC 002 ([11]; 3.13 μg/ml (1.4 μM)): 0.0
Score SSC 002 ([11]; 6.25 μg/ml (2.8 μM)): 0.0
Score SSC 002 ([11]; 12.5 μg/ml (5.6 μM)): 1.0
Score SSC 002 ([11]; 25 μg/ml (11.1 μM)): 4.0
Score SSC 002 ([11]; 50 μg/ml (22.2 μM)): 4.0
Score SSC 002 ([11]; 100 μg/ml (44.4 μM)): 4.0
Score SSC ascospores ([12]; 1.56 μg/ml (0.7 μM)): 0.0
Score SSC ascospores ([12]; 3.13 μg/ml (1.4 μM)): 0.0
Score SSC ascospores ([12]; 6.25 μg/ml (2.8 μM)): 0.0
Score SSC ascospores ([12]; 12.5 μg/ml (5.6 μM)): 4.0
Score SSC ascospores ([12]; 25 μg/ml (11.1 μM)): 4.0
Score SSC ascospores ([12]; 50 μg/ml (22.2 μM)): 4.0
Score SSC ascospores ([12]; 100 μg/ml (44.4 μM)): 4.0

tachyplesin [tachyplesin oxidized]
Score FGR 008 ([6]; 1.56 μg/ml (0.7 μM)): 0.0
Score FGR 008 ([6]; 3.13 μg/ml (1.4 μM)): 0.0
Score FGR 008 ([6]; 6.25 μg/ml (2.8 μM)): 2.0
Score FGR 008 ([6]; 12.5 μg/ml (5.6 μM)): 4.0
Score FGR 008 ([6]; 25 μg/ml (11.1 μM)): 4.0
Score FGR 008 ([6]; 50 μg/ml (22.2 μM)): 4.0
Score FGR 008 ([6]; 100 μg/ml (44.4 μM)): 4.0
Score (antifungal activity), Fusarium graminearum, isolate 5 [7]: 4.0
Score FGR 005 ([7]; 1.56 μg/ml (0.7 μM)): 0.0
Score FGR 005 ([7]; 3.13 μg/ml (1.4 μM)): 0.0
Score FGR 005 ([7]; 6.25 μg/ml (2.8 μM)): 2.25
Score FGR 005 ([7]; 12.5 μg/ml (5.6 μM)): 3.5
Score FGR 005 ([7]; 25 μg/ml (11.1 μM)): 4.0
Score FGR 005 ([7]; 50 μg/ml (22.2 μM)): 4.0
Score FGR 005 ([7]; 100 μg/ml (44.4 μM)): 4.0
Score (antifungal activity), Sclerotinia trifoliorum, isolate 1 [8]: 4.0
Score AFL 001 ([9]; 1.56 μg/ml (0.7 μM)): 0.0
Score AFL 001 ([9]; 3.13 μg/ml (1.4 μM)): 0.0
Score AFL 001 ([9]; 6.25 μg/ml (2.8 μM)): 1.0
Score AFL 001 ([9]; 12.5 μg/ml (5.6 μM)): 1.5
Score AFL 001 ([9]; 25 μg/ml (11.1 μM)): 2.75
Score AFL 001 ([9]; 50 μg/ml (22.2 μM)): 3.75
Score AFL 001 ([9]; 100 μg/ml (44.4 μM)): 3.75
Score FMO 001 ([10]; 1.56 μg/ml (0.7 μM)): 0.0
Score FMO 001 ([10]; 3.13 μg/ml (1.4 μM)): 0.5
Score FMO 001 ([10]; 6.25 μg/ml (2.8 μM)): 1.0
Score FMO 001 ([10]; 12.5 μg/ml (5.6 μM)): 2.5
Score FMO 001 ([10]; 25 μg/ml (11.1 μM)): 4.0
Score FMO 001 ([10]; 50 μg/ml (22.2 μM)): 4.0
Score FMO 001 ([10]; 100 μg/ml (44.4 μM)): 4.0
Score SSC 002 ([11]; 1.56 μg/ml (0.7 μM)): 0.0
Score SSC 002 ([11]; 3.13 μg/ml (1.4 μM)): 0.0
Score SSC 002 ([11]; 6.25 μg/ml (2.8 μM)): 0.0
Score SSC 002 ([11]; 12.5 μg/ml (5.6 μM)): 4.0
Score SSC 002 ([11]; 25 μg/ml (11.1 μM)): 4.0
Score SSC 002 ([11]; 50 μg/ml (22.2 μM)): 4.0
Score SSC 002 ([11]; 100 μg/ml (44.4 μM)): 4.0
Score SSC ascospores ([12]; 1.56 μg/ml (0.7 μM)): 0.0
Score SSC ascospores ([12]; 3.13 μg/ml (1.4 μM)): 0.0
Score SSC ascospores ([12]; 6.25 μg/ml (2.8 μM)): 3.0
Score SSC ascospores ([12]; 12.5 μg/ml (5.6 μM)): 4.0
Score SSC ascospores ([12]; 25 μg/ml (11.1 μM)): 4.0
Score SSC ascospores ([12]; 50 μg/ml (22.2 μM)): 4.0
Score SSC ascospores ([12]; 100 μg/ml (44.4 μM)): 4.0
